In publication PMC12108424, “Genetically Modified Mesenchymal Stromal/Stem Cells as a Delivery Platform for SE-33, a Cathelicidin LL-37 Analogue: Preclinical Pharmacokinetics and Tissue Distribution in C57BL/6 Mice” (Antibiotics, 2025):
Where no end group is shown, it is not given here.

How the values were obtained:
[1] = in vivo; parameters: species or system C57BL/6 mice
Protocol: (§1) The studies were conducted on sexually mature male C57BL/6 mice with an average body weight of 20 g and an age of 8 weeks. The animals were sourced from the “Andreevka”, branch of the Scientific Center of Biomedical Technologies of the Russian Federal Medical and Biological Agency (Russia). The mice underwent a 14-day acclimatization period. The animals were housed in individually ventilated polysulfone cages ISO RAIR 4 × 8 (LabProducts, Aberdeen, WA, USA) with Rehofix MK2000 corn cob bedding (J. Rettenmaier and Söhne GmbH, Rosenberg, Germany). The animal housing environment followed a 12-h light/dark cycle with an ad libitum access to water and standard laboratory feed. The group assignment was based on body weight, ensuring a no more than 10% deviation from the average group weight. All experimental procedures were approved by the Local Ethics Committee (LEC) of the Federal State Budgetary Educational Institution of Higher Education “Privolzhsky Research Medical University” Ministry of Health of the Russian Federation (Protocol No. 06, dated 29 April 2022) and adhered to the guidelines for the care and use of laboratory animals.
(§2) Immediately prior to administration, WJ-MSC-SE33 cells were resuspended in a saline solution (0.9% NaCl). The mice were divided into groups (n = 48) and fasted for 8 h before intravenous injection. The injection volume was calculated based on body weight. Single-dose administrations were 1 × 10^5 cells/mouse (0.5 × 10^7 cells/kg), 2.5 × 10^5 cells/mouse (1.25 × 10^7 cells/kg), and 5 × 10^5 cells/mouse (2.5 × 10^7 cells/kg) (Figure 4B). Repeated administrations were conducted on days 1, 3, and 5 at a dose of 1 × 10^5 cells/mouse (Figure 4B).
(§3) The 0 h time point represents samples obtained from animals prior to WJ-MSC-SE33 injection (pre-dose baseline). SE-33 concentrations at baseline were established as 0 μg/mL since the peptide was undetectable (<LLOQ) in all pre-dose samples, confirming the absence of endogenous expression. Blood samples were collected into tubes without an anticoagulant and centrifuged at 3000 rpm for 15 min at room temperature. Then, serum samples were isolated and placed in cryovials. Samples of peripheral tissues (lungs, liver, and spleen) were collected at similar time points. Blood and tissue samples were stored at −79 °C.
(§4) Thawed mouse serum was centrifuged at 12,000 rpm for 30 min using a MiniSpin centrifuge (Eppendorf, Hamburg, Germany). The supernatant was collected and diluted 20-fold with 20 mM TrisHCl (pH 7.8). For peripheral tissue samples, 100 mg of thawed tissue was weighed using Sartorius CPA225D scales (Sartorius, Göttingen, Germany) and homogenized in 1.6 mL of acidified ethanol (0.5 mL HCl in 1000 mL ethanol) using a Heidolph Diax 100 homogenizer (Heidolph Instruments, Schwabach, Germany) at 25,000 rpm on ice for 1 min. The homogenate was centrifuged at 12,000 rpm for 30 min. The supernatant was collected and diluted 20-fold with 20 mM Tris-HCl (pH 7.8).
(§5) To construct a protein that specifically binds to the SE-33 peptide ([…]), a complementary sequence with a high affinity to the SE-33 was calculated using the Antimicrobial Peptide Database APD3 [94, 95]. The sequence was cloned into a plasmid and expressed in E. coli strain BL21(DE3). The protein was then isolated and purified using a Ni-NTA column. Purified protein was conjugated with Epoxy-activated Sepharose 6B, creating a sorbent (Epoxy-Protein Sepharose) with a binding capacity of 240 μg/mL for the SE-33 peptide.
(§6) A column containing 5 mL of Epoxy-Protein Sepharose was equilibrated with 20 mM TrisHCl (pH 7.8). The sample was applied to the column via a 2 mL loop, followed by washing with 25 mL of 20 mM TrisHCl (pH 7.8). The SE-33 peptide was eluted with 5 mL of 75 mM NaCl in 20 mM TrisHCl (pH 7.8) without fractionation. The eluate enriched with the SE-33 peptide was subjected to solid-phase extraction. […]

[2] = in vivo; parameters: species or system C57BL/6 mice; conditions: iv
Protocol: as §1, §2
as §3, with “Blood samples were collected from the subclavian artery at 4, 8, 12, 16, 20, 24, 36, and 48 h post-administration (n = 6 animals/time point) (Figure 1B). […] The 0” for “The 0”
as §4, §5
as §6, with “fractionation.” for “fractionation. The eluate enriched with the SE-33 peptide was subjected to solid-phase extraction.”

[3] = parameters: species or system C57BL/6 mice; conditions: mouse, in vivo
Protocol: The tissue availability and distribution of SE-33 peptide were further assessed using the following parameters: fT: tissue penetration factor. This parameter reflects the ratio of drug exposure in tissues relative to plasma or serum and is used to assess antimicrobial drug distribution at the target site and to guide therapy selection. In this study, fT was calculated using the following equation:(4) fT=AUC0–t(tissue)/AUC0–t(serum) This approach, commonly applied in evaluating drug distribution within extravascular compartments, particularly for antimicrobial agents, is consistent with its established definition in pharmacokinetics as the tissue-to-plasma AUC ratio [99, 100].

[4] = test system: fungi and yeast; parameters: method as in PMID 38391576, doi:10.1134/S1068162019020158, PMID 40072070; conditions: in vitro; cited from earlier work
[5] = test system: S. aureus; parameters: method as in PMID 38391576, doi:10.1134/S1068162019020158, PMID 40072070; conditions: in vitro; cited from earlier work
[6] = test system: E. coli; parameters: method as in PMID 38391576, doi:10.1134/S1068162019020158, PMID 40072070; conditions: in vitro; cited from earlier work

SETRPVLNRLFDKIRQVRKEFGKIKEKSRKFM [SE-33]
AUC(0-t) ([1]; male, C57BL/6, mouse, iv): 2010 ng·h/mL | Tmax ([1]; male, C57BL/6, mouse, iv): 8 h | Cmax ([1]; male, C57BL/6, mouse, iv, Cmax): 142 ng/mL | MRT ([1]; male, C57BL/6, mouse, iv, MRT0–∞): 10.4 h | half-life ([1]; male, C57BL/6, mouse, iv, T1/2 (elimination half-life)): 4.8 h | persistence of the peptide in tissues ([1]; mouse): up to 48 h | SE-33 concentration at 8 h ([1]; mouse, iv): 0.043 μg/mL | SE-33 level in liver exceeding that in the lungs ([1]; mouse, iv): 4 fold | SE-33 levels within 2 h post-intravenous administration ([1]; mouse, iv): no detectable SE-33 levels | AUC ([2]; male, C57BL/6, mouse): 8210 ng·h/mL | AUC(0-inf) ([2]; male, C57BL/6, mouse): 8050 ng·h/mL | Cmax ([2]; male, C57BL/6, mouse): 233 ng/mL | Tmax ([2]; male, C57BL/6, mouse): 8 h | half-life ([2]; male, C57BL/6, mouse): 23.1 h | MRT ([2]; male, C57BL/6, mouse, MRT4–24): 34.2 h | MRT ([2]; male, C57BL/6, mouse, MRT4–∞): 31.4 h | Tmax ([2]; mouse): 4 h | increase of fT relative to the highest single dose [3]: 20.0% | rise of fT [3]: 25.0% | minimum inhibitory concentration (MIC) [4]: 31.2 to 1024 µg/mL | minimum inhibitory concentration (MIC) [5]: 12.5 µg/mL | minimum bactericidal concentration (MBC) [6]: 20 µg/mL
